What all share (type): in vivo
Experiment [1] relates to Phakopsora pachyrhizi. Kind of experiment: Leaf disc test with Phakopsora pachyrhizi on glyphosate resistant soybean (Example 1). An excerpt:
(§1) A synergistic effect exists whenever the action of an active ingredient combination is greater than the action expected from the effect of the individual components.
(§2) The action to be expected (E) for a given active ingredient combination obeys the so-called COLBY formula and can be calculated as follows (COLBY, S. R. “Calculating synergistic and antagonistic responses of herbicide combination”. Weeds, Vol. 15, pages 20-22; 1967):
(§3) ppm=milligrams of active ingredient (=a.i.) per litre of spray mixture X=% action by active ingredient I using p ppm of active ingredient Y=% action by active ingredient II using q ppm of active ingredient.
(§4) According to Colby, the expected (additive) action of active ingredients I+II using p+q ppm of active ingredient is
(§5) If the action actually observed (O) is greater than the expected action (E), then the action of the combination is superadditive, i.e. there is a synergistic effect.
A series of leaf disc tests were conducted to show the effects of tank mixtures of glyphosate and fungicides on Asian soybean rust. The soybean variety tested was NK Brand S40-R9 glyphosate resistant soybean. The leaf source for the testing was the first trifoliate leaf. Six (6) repetitions for each formulation and at each rate were conducted. Treatment of the leaf with the recited active ingredients was conducted 29 days after planting. The leaves were inoculated with Phakopsora pachyrhizi (Asian soybean rust (ASR)) one (1) day after treatment. Evaluation of the leaf was conducted ten (10) days after inoculation and the mean percent infestation of the six trials is reported in Table 1.
The glyphosate source was Zapp® QI herbicide (Syngenta Corp.), containing the potassium salt of glyphosate as well as an adjuvant system. The fungicide used was Priori® Xtra (Syngenta Corp.), which is a suspension concentrate containing 200 g/L of azoxystrobin (AZ) and 80 g/L of cyproconazole (CCZ). The rates of the active ingredients used in the tests are set forth in the Table as mg active ingredient (a.i.)/L.

The test system of experiment [2] is Phakopsora pachyrhizi. Kind of experiment: Application on whole plants: leaf disc test with Phakopsora pachyrhizi on glyphosate sensitive soybean (Example 5).
From the text: as §1, §2, §3, §4, §5
(§6) A series of leaf disc tests were conducted to show the effects of tank mixtures of glyphosate and pesticides or plant activators on Asian soybean rust. The soybean variety tested was brand Williams82 glyphosate sensitive soybean. The leaf source for the testing was the first trifoliate leaf. Six (6) repetitions for each formulation and at each rate were conducted. Treatment of whole plants with the recited active ingredients was conducted 4 weeks after planting. After application, leaf disks were cut and inoculated with Phakopsora pachyrhizi (Asian soybean rust (ASR)) one (1) day after treatment. Evaluation of the leaf was conducted ten (10) days after inoculation and the mean percent infestation of the six repetitions is reported in Tables 12-14.
As glyphosate source Touchdown® HiTech or Zapp® QI was used. The fungicides were used as commercial formulations: Cantus® WG50 fungicide comprising boscalid (BASF AG), Quadris® SC250 fungicide and Bion® WG50 plant activator comprising acibenzolar-S-methyl. The rates of the active ingredients used in the tests are set in Tables 12-14 as g active ingredient (a.i.)/hectare (ha). The spray volume was 200 l/ha.

Experiment [3] has as its system Phakopsora pachyrhizi. Kind of experiment: Application on whole plants: leaf disc test with Phakopsora pachyrhizi on glyphosate tolerant soybean (Example 6).
From the text: as §1, §2, §3, §4, §5
as §6, with “Leaf” for “A series of leaf”, “S40-R9” for “Williams82”, “tolerant” for “sensitive”, “[…]” for “of whole plants with the recited active ingredients was conducted 4 weeks after planting. After”, “15-17.” for “12-14.”
As glyphosate source Touchdown® HiTech or Zapp® QI was used. The fungicides were used as commercial formulations: Bravo® SC500 fungicide comprising chlorothalonil (Syngenta Corp.), Score® EC250 fungicide comprising difenaconazole (Syngenta Corp.) and Mancozeb 80WP fungicide comprising mancozeb. The rates of the active ingredients used in the tests are set in Tables 15-17 as g active ingredient (a.i.)/hectare (ha). The spray volume was 200 l/ha.

[4] abbreviates: Glyphosate TD HiTech SL523 200 g a.i./ha.
Where [5] appears, read: Glyphosate TD HiTech SL523 500 g a.i./ha.
[6] abbreviates: Glyphosate TD HiTech SL523 600 g a.i./ha.
The mark [7] stands for this setting: Glyphosate TD HiTech SL523 500 g a.i./ha, Tables 15, 17 (check 60).
The mark [8] stands for this setting: Glyphosate TD HiTech SL523 1500 g a.i./ha, Table 16 (check 49).
[9] abbreviates: Glyphosate TD HiTech SL523 1500 g a.i./ha, Tables 15, 17 (check 60).

On to `O=C(O)CNCP(=O)(O)O` [Glyphosate, glyphosate], for which the “% Leaf attack” value was 90% in the experiment on Phakopsora pachyrhizi [1] (Glyphosate 0.1 mg a.i./L (Zapp QI)); 90% in the experiment with Phakopsora pachyrhizi [1] (Glyphosate 0.39 mg a.i./L (Zapp QI)); 100% with Phakopsora pachyrhizi [1] (Glyphosate 1.56 mg a.i./L (Zapp QI)); 100% with Phakopsora pachyrhizi [1] (Glyphosate 6.25 mg a.i./L (Zapp QI)); 100% in the experiment with Phakopsora pachyrhizi [1] (Glyphosate 25 mg a.i./L (Zapp QI)); 100% with Phakopsora pachyrhizi [1] (Glyphosate 100 mg a.i./L (Zapp QI)). Also, the inhibition at 0.1 µg/mL in the experiment with Phakopsora pachyrhizi [1] (Phakopsora pachyrhizi, foliar, Glyphosate 0.1 mg a.i./L (Zapp QI), read-out: % Activity observed) came out at 6%. The inhibition at 0.39 µg/mL in the experiment with Phakopsora pachyrhizi [1] (Phakopsora pachyrhizi, foliar, Glyphosate 0.39 mg a.i./L (Zapp QI), read-out: % Activity observed) turned out to be 6%. Moreover, in the experiment with Phakopsora pachyrhizi [1] (Phakopsora pachyrhizi, foliar, Glyphosate 1.56 mg a.i./L (Zapp QI), read-out: % Activity observed), the inhibition at 1.56 µg/mL worked out at 0%. Further, the inhibition at 6.25 µg/mL in the experiment with Phakopsora pachyrhizi [1] (Phakopsora pachyrhizi, foliar, Glyphosate 6.25 mg a.i./L (Zapp QI), read-out: % Activity observed) is 0%. Further, the inhibition at 25 µg/mL in the experiment on Phakopsora pachyrhizi [1] (Phakopsora pachyrhizi, foliar, Glyphosate 25 mg a.i./L (Zapp QI), read-out: % Activity observed) turned out to be 0%. The inhibition at 100 µg/mL in the experiment on Phakopsora pachyrhizi [1] (Phakopsora pachyrhizi, foliar, Glyphosate 100 mg a.i./L (Zapp QI), read-out: % Activity observed) was 0%. Besides, the Activity observed % with Phakopsora pachyrhizi [2] (setting [4]) stood at 7%; in the experiment with Phakopsora pachyrhizi [2] (setting [5]), 10%; with Phakopsora pachyrhizi [2] (setting [6]), 19%; in the experiment with Phakopsora pachyrhizi [3] (setting [7]), 0%; in the experiment with Phakopsora pachyrhizi [3] (setting [8]) it was 44%; with Phakopsora pachyrhizi [3] (setting [9]), 17%. Also, the Leaf attack % in the experiment on Phakopsora pachyrhizi [2] (setting [4]) is reported as 58%; with Phakopsora pachyrhizi [2] (setting [5]) it was 56%; in the experiment on Phakopsora pachyrhizi [2] (setting [6]) it was 50%; in the experiment with Phakopsora pachyrhizi [3] (setting [7]), 68%; in the experiment on Phakopsora pachyrhizi [3] (setting [8]) it was 28%; in the experiment on Phakopsora pachyrhizi [3] (setting [9]) it was 50%.

The values above are taken from patent US20090023687A1, “Method for Controlling Phytopathogenic Organisms” (SYNGENTA CROP PROTECTION, INC., priority 2005, published 2009).
